These results are taken from ChEMBL document CHEMBL4513161, “CO-ADD screening of MMV (CH) - Pandemic Response Box” (2021).

In one experiment the test system is Acinetobacter baumannii. Briefly: microbe, parasite or virus in culture. Conditions: ATCC 19606, 18 h, ASSAY_TEST Inhibition of Bacterial Growth, detection method Absorption (OD600), MEDIA CAMHB, plate type 384well, NBS, CORNING #3640.
For experiment [1], the system named is Pseudomonas aeruginosa. Put plainly: microbe, parasite or virus in culture. The settings on record: ATCC 27853, 18 h, ASSAY_TEST Inhibition of Bacterial Growth, detection method Absorption (OD600), MEDIA CAMHB, plate type 384well, NBS, CORNING #3640.
Description: Antibacterial activity against Pseudomonas aeruginosa ATCC 27853 (CO-ADD:GN_042); MIC in CAMBH media using NBS plates, by OD(600)
The subject of a further experiment is Klebsiella pneumoniae. Put plainly: microbe, parasite or virus in culture. The settings on record: ATCC 700603, 18 h, ASSAY_TEST Inhibition of Bacterial Growth, detection method Absorption (OD600), MEDIA CAMHB, plate type 384well, NBS, CORNING #3640.
For experiment [2], the system named is Pseudomonas aeruginosa. Put plainly: Antibacterial activity against Pseudomonas aeruginosa PAO397 [PAO1 d(mexAB-oprM) d(mexCD-oprJ) d(mexEF-oprN) d(mexJKL) d(mexXY) d(opmH)] (CO-ADD:GN_211); MIC in CAMBH media using NBS plates, by OD(600). Format: functional. The settings on record: ASSAY_TEST Inhibition of Bacterial Growth, detection method Absorption (OD600), MEDIA CAMHB, plate type 384well, CORNING #3640, time 18 hr.

For a further experiment, the system named is Candida albicans. Briefly: microbe, parasite or virus in culture. The settings on record: ATCC 90028, ASSAY_TEST Inhibition of Fungal Growth, detection method Absorption (OD530), plate type 384well, NBS, CORNING #3640.
A further experiment relates to Staphylococcus aureus. Briefly: microbe, parasite or virus in culture. Conditions: ATCC 43300, 18 h, ASSAY_TEST Inhibition of Bacterial Growth, detection method Absorption (OD600), MEDIA CAMHB, plate type 384well, NBS, CORNING #3640.
In the next experiment the test system is Escherichia coli. Briefly: microbe, parasite or virus in culture. The settings on record: ATCC 25922, 18 h, ASSAY_TEST Inhibition of Bacterial Growth, detection method Absorption (OD600), MEDIA CAMHB, plate type 384well, NBS, CORNING #3640.
In a further experiment the test system is HEK293. Put plainly: cells. The settings on record: Homo sapiens, ATCC CRL1573, HEK293; ASSAY_TEST Inhibition of Cell Viability; detection method Resazurin; Fluorescence (ex560/em590); MEDIA DMEM with 10% FBS; plate type 384well; TC; CORNING #3712; time 18 hr; read-out: CC50. Format: functional, Homo sapiens, ATCC CRL1573.

Molecules are shown by their SMILES. ≈ marks a conversion by molar mass, not a printed value. Where a name gives a salt, the structure may show the parent alone. Bounds are passed on as bounds.

Description for Acinetobacter baumannii: Antibacterial activity against Acinetobacter baumannii ATCC 19606 (CO-ADD:GN_034); MIC in CAMBH media using NBS plates, by OD600
Description for Candida albicans: Antifungal activity against Candida albicans ATCC 90028 (CO-ADD:FG_001); MIC in YNB media using NBS plates, by OD630
Description for Cryptococcus neoformans: Antifungal activity against Cryptococcus neoformans H99 ATCC 208821 (CO-ADD:FG_002); MIC in YNB media using NBS plates, by Resazurin OD(600-570)
Description for Escherichia coli: Antibacterial activity against Escherichia coli ATCC 25922 (CO-ADD:GN_001); MIC in CAMBH media using NBS plates, by OD(600)
Description for Klebsiella pneumoniae: Antibacterial activity against Klebsiella pneumoniae MDR ATCC 70063 (CO-ADD:GN_003); MIC in CAMBH media using NBS plates, by OD(600)
Description for Staphylococcus aureus: Antibacterial activity against Staphylococcus aureus MRSA ATCC 43300 (CO-ADD:GP_020); MIC in CAMBH media, using NBS plates, by OD(600)

Turning to `COc1ccc(COc2cc3oc(=O)c4cc(C(C)O)ccc4c3cc2OC)cc1` (stereo unspecified) [PALOMID-529], the MIC against Acinetobacter baumannii, in the experiment on Pseudomonas aeruginosa [1], against Klebsiella pneumoniae, in the experiment with Cryptococcus neoformans, in the experiment on Pseudomonas aeruginosa [2] and against Candida albicans was > 20 µM throughout. The MIC with Staphylococcus aureus and in the experiment with Escherichia coli was > 20 µM each time. Besides, the half-maximal cytotoxic concentration (CC50) in the experiment with HEK293 is > 20 µM.

Consider `Cc1[nH]c2ccccc2c1CCNCc1ccc(/C=C/C(=O)NO)cc1` [PANOBINOSTAT], for which the MIC against Acinetobacter baumannii, in the experiment with Pseudomonas aeruginosa [1], against Klebsiella pneumoniae, in the experiment with Cryptococcus neoformans, with Pseudomonas aeruginosa [2] and in the experiment on Candida albicans was > 20 µM throughout. Besides, the MIC against Staphylococcus aureus and with Escherichia coli was > 20 µM in each case. Moreover, the CC50 with HEK293 was > 20 µM.

In the case of `Nc1nc2c(Cc3cccnc3)c[nH]c2c(=O)[nH]1` [PELDESINE], the MIC with Acinetobacter baumannii, in the experiment with Pseudomonas aeruginosa [1], in the experiment with Klebsiella pneumoniae, against Cryptococcus neoformans, against Pseudomonas aeruginosa [2] and against Candida albicans was > 20 µM in each case. Also, the MIC in the experiment with Staphylococcus aureus and in the experiment with Escherichia coli was > 20 µM throughout. In addition, the half-maximal cytotoxic concentration (CC50) in the experiment with HEK293 was > 20 µM.

In the case of `CC[C@@H]1C(=O)OC[C@@H]1Cc1cncn1C` [PILOCARPINE HYDROCHLORIDE], the MIC in the experiment with Acinetobacter baumannii, with Pseudomonas aeruginosa [1], against Klebsiella pneumoniae, with Cryptococcus neoformans, with Pseudomonas aeruginosa [2] and against Candida albicans was > 20 µM each time. In addition, the MIC in the experiment with Staphylococcus aureus and against Escherichia coli was > 20 µM throughout. In the experiment on HEK293, the CC50 was > 20 µM.

As for `O=C(O)[C@H]1C2CCC(CC2)[C@@H]1Nc1nc(-c2c[nH]c3ncc(F)cc23)ncc1F` [PIMODIVIR], the MIC against Acinetobacter baumannii, against Pseudomonas aeruginosa [1], against Klebsiella pneumoniae, in the experiment with Cryptococcus neoformans, in the experiment with Pseudomonas aeruginosa [2] and in the experiment with Candida albicans was > 20 µM each time. The MIC in the experiment with Staphylococcus aureus and in the experiment on Escherichia coli was > 20 µM in each case. Besides, in the experiment on HEK293, the 50% cytotoxic concentration (CC50) was > 20 µM.

Consider `CN(C)CC(=O)Nc1ccc2[nH]c(=O)c3ccccc3c2c1` [PJ34], for which the MIC with Acinetobacter baumannii, in the experiment with Pseudomonas aeruginosa [1], in the experiment with Klebsiella pneumoniae, against Cryptococcus neoformans, in the experiment on Pseudomonas aeruginosa [2] and against Candida albicans was > 20 µM in each case. Besides, the MIC against Staphylococcus aureus and in the experiment with Escherichia coli was > 20 µM each time. In addition, the CC50 in the experiment on HEK293 is > 20 µM.

On to `Cc1cc(CCCOc2c(C)cc(-c3noc(C(F)(F)F)n3)cc2C)on1` [PLECONARIL], for which the MIC in the experiment on Acinetobacter baumannii, against Pseudomonas aeruginosa [1], in the experiment with Klebsiella pneumoniae, in the experiment with Cryptococcus neoformans, against Pseudomonas aeruginosa [2] and with Candida albicans was > 20 µM in each case. Further, the MIC with Staphylococcus aureus and in the experiment on Escherichia coli was > 20 µM in each case. Also, in the experiment on HEK293, the CC50 is > 20 µM.

Consider `c1cc(CN2CCCNCCNCCCNCC2)ccc1CN1CCCNCCNCCCNCC1` [PLERIXAFOR], for which the MIC in the experiment on Acinetobacter baumannii, against Pseudomonas aeruginosa [1], against Klebsiella pneumoniae, against Cryptococcus neoformans, in the experiment on Pseudomonas aeruginosa [2] and with Candida albicans was > 20 µM each time. The MIC in the experiment with Staphylococcus aureus and against Escherichia coli was > 20 µM throughout. The CC50 in the experiment with HEK293 was > 20 µM.

Take `O=[N+]([O-])c1cn2c(n1)OC[C@@H](OCc1ccc(OC(F)(F)F)cc1)C2` [PRETOMANID]: the MIC with Acinetobacter baumannii, with Pseudomonas aeruginosa [1], against Klebsiella pneumoniae, against Cryptococcus neoformans, against Pseudomonas aeruginosa [2] and in the experiment on Candida albicans was > 20 µM throughout. Further, the MIC against Staphylococcus aureus and against Escherichia coli was > 20 µM throughout. Further, in the experiment with HEK293, the CC50 was > 20 µM.

As for `NC(=O)c1cnccn1` [PYRAZINAMIDE], the MIC against Acinetobacter baumannii, in the experiment with Pseudomonas aeruginosa [1], in the experiment with Klebsiella pneumoniae, against Cryptococcus neoformans, with Pseudomonas aeruginosa [2] and in the experiment on Candida albicans was > 20 µM in each case. Besides, the MIC in the experiment with Staphylococcus aureus and in the experiment on Escherichia coli was > 20 µM each time. In addition, the CC50 with HEK293 is > 20 µM.

As for `C[C@@H](c1nc(-c2ccc(C#N)cc2)cs1)[C@](O)(Cn1cncn1)c1ccc(F)cc1F` [RAVUCONAZOLE], the MIC was > 20 µM against Acinetobacter baumannii; > 20 µM against Pseudomonas aeruginosa [1]; > 20 µM in the experiment with Klebsiella pneumoniae; 0.312 µM (≈ 0.137 µg/mL) against Cryptococcus neoformans; > 20 µM with Pseudomonas aeruginosa [2]; ≤ 0.156 µM in the experiment on Candida albicans. Moreover, the MIC with Staphylococcus aureus and with Escherichia coli was > 20 µM in each case. Besides, the half-maximal cytotoxic concentration (CC50) in the experiment on HEK293 is > 20 µM.

As to `CCOCc1nc2c(N)nc3ccccc3c2n1CC(C)(C)O` [RESIQUIMOD], the MIC against Acinetobacter baumannii, in the experiment on Pseudomonas aeruginosa [1], with Klebsiella pneumoniae, in the experiment with Cryptococcus neoformans, with Pseudomonas aeruginosa [2] and in the experiment with Candida albicans was > 20 µM each time. In addition, the MIC with Staphylococcus aureus and against Escherichia coli was > 20 µM in each case. Besides, the CC50 with HEK293 was > 20 µM.

Regarding `C=C[C@]1(C)C[C@@H](OC(=O)CS[C@@H]2C[C@H]3CC[C@@H](C2)N3C)[C@]2(C)[C@H](C)CC[C@]3(CCC(=O)[C@H]32)[C@@H](C)[C@@H]1O` [RETAPAMULIN], the MIC is > 20 µM against Acinetobacter baumannii; > 20 µM with Pseudomonas aeruginosa [1]; > 20 µM against Klebsiella pneumoniae; > 20 µM with Cryptococcus neoformans; 2.5 µM (≈ 1.29 µg/mL) in the experiment with Pseudomonas aeruginosa [2]; > 20 µM with Candida albicans. Besides, the MIC in the experiment with Staphylococcus aureus was ≤ 0.156 µM; in the experiment with Escherichia coli it was > 20 µM. The CC50 in the experiment on HEK293 was > 20 µM.

As to `Cc1nc(Nc2ccc(F)cc2)nc(N2CCc3ccccc3C2C)c1C` (stereo unspecified) [REVAPRAZAN], the MIC in the experiment on Acinetobacter baumannii, against Pseudomonas aeruginosa [1], with Klebsiella pneumoniae, against Cryptococcus neoformans, against Pseudomonas aeruginosa [2] and against Candida albicans was > 20 µM each time. The MIC in the experiment on Staphylococcus aureus and in the experiment with Escherichia coli was > 20 µM throughout. Besides, in the experiment on HEK293, the CC50 was > 20 µM.

For the molecule `CC(N)C12CC3CC(CC(C3)C1)C2` (stereo unspecified) [RIMANTADINE HYDROCHLORIDE], the MIC in the experiment on Acinetobacter baumannii, in the experiment with Pseudomonas aeruginosa [1], against Klebsiella pneumoniae, in the experiment on Cryptococcus neoformans, in the experiment on Pseudomonas aeruginosa [2] and with Candida albicans was > 20 µM in each case. Also, the MIC against Staphylococcus aureus and in the experiment on Escherichia coli was > 20 µM throughout. For the same molecule, the 50% cytotoxic concentration (CC50) in the experiment on HEK293 is > 20 µM.

With `COc1ccc(C2CNC(=O)C2)cc1OC1CCCC1` (stereo unspecified) [ROLIPRAM], the MIC against Acinetobacter baumannii, with Pseudomonas aeruginosa [1], with Klebsiella pneumoniae, against Cryptococcus neoformans, against Pseudomonas aeruginosa [2] and in the experiment with Candida albicans was > 20 µM throughout. The MIC with Staphylococcus aureus and against Escherichia coli was > 20 µM each time. In the experiment with HEK293, the CC50 was > 20 µM.

Regarding `CC[C@@]1(O)C(=O)OCc2c1cc1n(c2=O)Cc2cc3c([N+](=O)[O-])cccc3nc2-1` [RUBITECAN], the MIC in the experiment with Acinetobacter baumannii, against Pseudomonas aeruginosa [1], in the experiment on Klebsiella pneumoniae, against Cryptococcus neoformans, with Pseudomonas aeruginosa [2] and in the experiment with Candida albicans was > 20 µM throughout. The MIC with Staphylococcus aureus and against Escherichia coli was > 20 µM each time. Moreover, the cytotoxic concentration (CC50) in the experiment with HEK293 came to 0.695 µM.

On to `OCCC#Cc1nc(-c2ccc(F)cc2)c(-c2ccncc2)n1CCCc1ccccc1` [RWJ-67657], for which the MIC in the experiment on Acinetobacter baumannii, in the experiment with Pseudomonas aeruginosa [1], in the experiment on Klebsiella pneumoniae, in the experiment with Cryptococcus neoformans, with Pseudomonas aeruginosa [2] and against Candida albicans was > 20 µM throughout. Besides, the MIC with Staphylococcus aureus and with Escherichia coli was > 20 µM each time. Moreover, the cytotoxic concentration (CC50) in the experiment on HEK293 is > 20 µM.

For `Cc1ncc([N+](=O)[O-])n1CC(C)O` (stereo unspecified) [SECNIDAZOLE], the MIC in the experiment with Acinetobacter baumannii, in the experiment on Pseudomonas aeruginosa [1], in the experiment with Klebsiella pneumoniae, against Cryptococcus neoformans, against Pseudomonas aeruginosa [2] and with Candida albicans was > 20 µM in each case. Moreover, the MIC against Staphylococcus aureus and against Escherichia coli was > 20 µM each time. In the experiment with HEK293, the cytotoxic concentration (CC50) is > 20 µM.

Broadly, the CC50 is the concentration that lowers cell viability or growth by half.
